Test results reported in article PMC10167355, “Optimized spirooxindole-pyrazole hybrids targeting the p53-MDM2 interplay induce apoptosis and synergize with doxorubicin in A549 cells” (Scientific Reports, 2023).

Columns and labels:
p53 = assay: Western blot of p53 level in A549 cells; assay type: cell-based, human; details: for p53 level, single agent: 0.2 µM derivative alone or 14 µM doxorubicin alone
Description: (§1) A549 cells were treated with different concentrations of the molecules as indicated. Cell extracts were prepared as described. Ten-20 μg of total proteins were resolved on 4–15% Mini protean TGX precast gels (Bio-Rad) and transferred to nitrocellulose membrane using 1704158 Trans-Blot Turbo Mini NC Transfer Packs (Bio-Rad) in a Trans-Blot Turbo apparatus (Bio-Rad). Membranes were blocked with 5% non-fat dry milk in 0.1% Tween-20 in PBS for 1 h, then incubated for 1 h at room temperature or overnight at 4 °C with the appropriate primary antibody. The following antibodies were employed: anti-p53 (DO-1, sc-126, Santa Cruz Biotechnology, 1:20.000), anti-p21 (2946, Cell Signaling, 1:2000), anti-MDM2 (SMP14, sc-965, Santa Cruz Biotechnology, 1:200), anti β-actin (AC-74, Sigma-Aldrich, 1:30.000); secondary anti-mouse IgG peroxidase conjugate (A9044, Sigma–Aldrich, 1:10.000) and secondary anti-rabbit peroxidase conjugate (A9169, Sigma-Aldrich, 1: 12.000). Detection was carried out with ECL FAST PICO (ECL-1002, Immunological Sciences, Roma, Italy). Chemiluminescence was analysed by Alliance LD, UVITEC Cambridge (Cambridge, UK).

p21 = assay: Western blot of p21 level in A549 cells; assay type: cell-based, human; details: A549; for p21 level, single agent: 0.2 µM derivative alone or 14 µM doxorubicin alone
Description: as §1

MDM2 = assay: Western blot of MDM2 level in A549 cells; assay type: cell-based, human; details: A549; for MDM2 level, single agent: 0.2 µM derivative alone or 14 µM doxorubicin alone
Description: as §1

[1] = 0.2 µM derivative plus 14 µM doxorubicin

Cc1c(C(=O)C2C(c3ccccc3)C3CSCN3C23C(=O)Nc2ccccc23)cnn1-c1ccccc1 (stereo not drawn)
melting point: 229 to 230 °C

Cc1cccc(C2C3CSCN3C3(C(=O)Nc4ccccc43)C2C(=O)c2cnn(-c3ccccc3)c2C)c1 (stereo not drawn)
melting point: 128 to 130 °C

COc1ccc(C2C3CSCN3C3(C(=O)Nc4ccccc43)C2C(=O)c2cnn(-c3ccccc3)c2C)cc1 (stereo not drawn)
melting point: 109 to 110 °C

Cc1c(C(=O)C2C(c3ccc(Cl)cc3)C3CSCN3C23C(=O)Nc2ccccc23)cnn1-c1ccccc1 (stereo not drawn)
melting point: 122 to 123 °C

Cc1c(C(=O)C2C(/C=C/c3ccccc3)C3CSCN3C23C(=O)Nc2ccccc23)cnn1-c1ccccc1 (stereo not drawn)
melting point: 144 to 145 °C

Cc1c(C(=O)C2C(c3ccc([N+](=O)[O-])cc3)C3CSCN3C23C(=O)Nc2ccccc23)cnn1-c1ccccc1 (stereo not drawn)
melting point: 142 to 143 °C

Cc1c(C(=O)C2C(c3cccc([N+](=O)[O-])c3)C3CSCN3C23C(=O)Nc2ccccc23)cnn1-c1ccccc1 (stereo not drawn)
melting point: 146 to 147 °C

Cc1ccc(C2C3CSCN3C3(C(=O)Nc4ccccc43)C2C(=O)c2cnn(-c3ccccc3)c2C)cc1 (stereo not drawn)
melting point: 134 to 135 °C

7'-(Ferrocin-2-yl)-6'-(5-methyl-1-phenyl-1H-pyrazole-4-carbonyl)-3',6',7',7a'-tetrahydro-1'H-spiro[indoline-3,5'-pyrrolo[1,2-c]thiazol]-2-one [8d]
p53 induction, dose–response (p53; A549, 24 h, 0.01, 0.1, 1, 10 µM): able to induce p53 only at high concentrations
p53 level, single agent (p53; A549): did not increase
p53 level, combined treatment compared to doxorubicin alone (p53; A549, 0.2 µM derivative plus 14 µM doxorubicin): no further increases
p21 level, single agent (p21): did not increase
p21 level, combined treatment compared to doxorubicin alone (p21; [1]): no further increases
MDM2 level, single agent (MDM2): slight but not significant MDM2 increase
MDM2 level, combined treatment compared to doxorubicin alone (MDM2; [1]): no further increases

COc1cccc2c1C(=O)c1c(O)c3c(c(O)c1C2=O)C[C@@](O)(C(=O)CO)C[C@@H]3O[C@H]1C[C@H](N)[C@H](O)[C@H](C)O1 [Doxorubicin, doxorubicin]
p53 level, single agent (p53; A549): clearly triggered the induction
p21 level, single agent (p21): clearly triggered the induction
MDM2 level, single agent (MDM2): strongly decreased
